Data: patent US4652646A, “Thiazolo[3,2-a][1,2,3]triazolo[4,5-d]pyrimidine and [1,3,4]thiadiazolo[3,2-a][1,2,3]triazolo[4,5-d]pyrimidine derivatives” (Daiichi Seiyaku Co., Ltd., priority 1984, dated 1987)

Tests used:
[1] = tested on: release of histamine induced by passive peritoneal anaphylaxis (PPA) reaction; test: Passive Peritoneal Anaphylaxis (PPA) test: inhibition of histamine release; type: in vivo, Sprague-Dawley male rats; conditions: ip, 5 min; rat PPA; 1 mg/kg intraperitoneally 30 seconds before egg albumin
Procedure: (§1) 1 mg of egg albumin dissolved in 0.2 ml of saline was intramuscularly administered to each of Sprague-Dawley male rats weighing 300 to 350 g (Charles River Japan Inc.), and then 1 ml of a suspension of sterilized Bordetella pertussis (2×10^10 cells) in saline was administered intraperitoneally to the rats. After 14 days, blood was drawn from the rats to obtain an antiserum.
(§2) The test was conducted according to the method of Orange et al [Orange, R. P., Stechschulte, D. J., Austen, K. F., J. Immunol., 105, pp1087-1095 (1970)]. Sprague-Dawley male rats weighing 250 to 400 g (5 rats per group) were passively sensitized by administering 5 ml of 5-fold dilution antiserum (prepared by diluting the above antiserum with saline). 2 hours later, 5 ml of an egg albumin solution prepared by dissolving 2 mg of egg albumin in phosphate buffered saline containing 0.9 mM of calcium chloride was administered intraperitoneally to the rats. After 5 minutes, the rats were sacrificed by decapitation, and peritoneal fluid was pooled and centrifuged at 300×G at 4° C. for 10 minutes. Then, amounts of SRS-A and histamine in the supernatant were determined.
The quantitative determination of histamine was carried out according to the method of Shore et al [Shore, P. A., Bunkhalter, A. H., Cohn, V. H., J. Pharmacol. Exp. Ther., 127, pp182-186 (1959)], and the total released amount of histamine per rat (μg/rat) was calculated.
(§3) In this test, the test compound of this invention was administered as follows. 2 mg of a test compound was dissolved in 10 ml of phosphate buffered saline containing 0.9 mM of calcium chloride, an equimolar amount of sodium hydroxide to test compound, 2% of dimethyl sulfoxide and 2% of ethanol, and the solution was administered intraperitoneally to the rats at a dose of 1 mg/kg 30 seconds before the injection of egg albumin for inducing PPA. For a control group, the same solution without test compound and sodium hydroxide was administered.
(§4) The inhibitory activity on release of histamine and SRS-A by the PPA reaction in the treated group was calculated by the following formula: [formula] wherein: a represents a mean value of released amount in the control group.
(§5) b represents a mean value of released amount in the treated group.
(§6) c represents a mean value of spontaneously released amount.

[2] = tested on: release of SRS-A induced by passive peritoneal anaphylaxis (PPA) reaction; test: Passive Peritoneal Anaphylaxis (PPA) test: inhibition of SRS-A release; type: in vivo, Sprague-Dawley male rats; conditions: ip, 5 min; rat PPA; 1 mg/kg intraperitoneally 30 seconds before egg albumin
Procedure: as §1, §2
The quantitative determination of SRS-A was carried out according to the method of Stechschulte et al [Stechschulte, D. J., Auste, K. F., Bloch, K. J., J. Exp. Med., 125, pp127-147 (1967)] using a guinea pig ileum specimen in the presence of mepyramine and atropine. The amount of SRS-A was expressed in terms of unit, i.e., one unit of SRS-A activity was defined as the concentration required to produce a contraction of guinea pig ileum equal in amplitude to that produced by 5 ng of histamine, and the total released amount of SRS-A per rat (unit/rat) was calculated.
as §3, §4, §5, §6

[3] = tested on: passive cutaneous anaphylaxis (PCA) reaction; test: Passive cutaneous anaphylaxis (PCA) test; type: in vivo, Sprague-Dowley male rats; conditions: 0.5 h; rat PCA; 20 mg/kg in 0.5% CMC, oral, 30 minutes before antigen challenge
Procedure: as §1
In this test, the antiserum described in Test Example 1 was used after it was diluted with saline so as to provide a blue spot having a diameter of about 10 mm in the following control group.
Sprague-Dowley male rats weighing about 180 g (5 rats per group) were sensitized by injecting 0.05 ml of the diluted antiserum into the shaved dorsal skin. 48 hours later, the animals were challenged with 1 ml of saline containing 5 mg of egg albumin and 5 mg of Evans blue dye administered via a tail vein. 30 minutes later, the rats were sacrificed by decapitation. The dorsal skin was removed, and the long and short axis of the each wheal was measured.
In this test, the test compound was administered as follows. 20 mg of a test compound was suspended in a 0.5% CMC aqueous solution, and the suspension was administered to each of the rats in an amount of 20 mg/kg 30 minutes before the antigen challenge. For a control group, only a 0.5% CMC solution was administered.
The inhibitory activity on the PCA reaction in the treated group was calculated by the following formula: [formula] wherein: a represents a mean value of blue spot area in the control group.
b represents a mean value of blue spot area in the treated group.

[4] = Acute oral toxicity (LD50) in rats; conditions: rat, in vivo, oral administration

SMILES | inhibition in vivo at 1 mg/kg [1] | inhibition in vivo at 1 mg/kg [2] | inhibition in vivo at 20 mg/kg [3] | LD50 [4]
O=c1c2[nH]nnc2nc2sc(C=Cc3ccccc3)nn12 [Example 62] | 94% | 55% |  | 
CC(C)(C)c1ccc(-c2nn3c(=O)c4[nH]nnc4nc3s2)s1 [Example 28] |  |  | 34% | 
CC(C)(C)c1ccc(Cc2nn3c(=O)c4[nH]nnc4nc3s2)cc1 [Example 43] | 75% | 59% |  | 
O=c1c2[nH]nnc2nc2sc(COc3ccccc3)nn12 [Example 64] |  |  | 33% | 
O=c1c2[nH]nnc2nc2sc(-c3ccco3)nn12 [Example 17] | 82% | 55% | 50% | > 2000 mg/kg
O=c1c2[nH]nnc2nc2sc(-c3cccs3)nn12 [Example 23] | 84% | 51% | 31% | > 2000 mg/kg
O=c1c2[nH]nnc2nc2sc(-c3ccc(C4CCCCC4)cc3)cn12 [Example 7] |  |  | 40% | 
O=c1c2[nH]nnc2nc2sc(-c3ccc4c(c3)OCO4)nn12 [Example 12] | 87% | 52% | 36% | 
O=c1c2[nH]nnc2nc2sc(-c3cc4c(s3)CCC4)nn12 [Example 33] | 82% | 70% | 47% | 
O=c1c2[nH]nnc2nc2sc(-c3cc4c(s3)CCCC4)nn12 [Example 35] | 88% | 45% | 45% | 
O=c1c2[nH]nnc2nc2sc(-c3ccccc3)cn12 [Example 8] | 83% | 37% |  | 
O=c1c2[nH]nnc2nc2sc(COc3ccc(F)cc3)nn12 [Example 66] | 89% | 47% |  | 
O=c1c2[nH]nnc2nc2sc(-c3ccc(Cl)o3)nn12 [Example 21] |  |  | 35% | > 2000 mg/kg
O=c1c2[nH]nnc2nc2sc(CCc3cccc(Cl)c3)nn12 [Example 54] |  |  |  | > 2000 mg/kg
O=c1c2[nH]nnc2nc2sc(-c3cccc(F)c3)nn12 [Example 13] |  |  | 34% | 
CCc1sc(-c2nn3c(=O)c4[nH]nnc4nc3s2)cc1C [Example 31] |  |  | 32% | 
O=c1c2[nH]nnc2nc2sc(CC(c3ccccc3)c3ccccc3)nn12 [Example 57] | 86% | 61% |  | 
COc1cccc(-c2nn3c(=O)c4[nH]nnc4nc3s2)c1OC [Example 11] | 89% | 66% | 32% | 
O=c1c2[nH]nnc2nc2sc(C3COc4ccccc4C3)nn12 (centres unmarked) [Example 39] |  |  | 38% | 
Cc1ccccc1CCc1nn2c(=O)c3[nH]nnc3nc2s1 [Example 48] |  |  |  | > 2000 mg/kg
O=c1c2[nH]nnc2nc2sc(-c3cccs3)cn12 [Example 75] |  |  | 32% | 
CC(C)(C)c1cc(-c2nn3c(=O)c4[nH]nnc4nc3s2)cs1 [Example 29] |  |  | 39% | 
COc1ccc(-c2nn3c(=O)c4[nH]nnc4nc3s2)cc1 [Example 3] | 93% | 42% |  | 
Cc1cccc(CCc2nn3c(=O)c4[nH]nnc4nc3s2)c1 [Example 49] |  |  |  | > 2000 mg/kg

SMILES | inhibition in vivo at 1 mg/kg [1] | inhibition in vivo at 1 mg/kg [2] | inhibition in vivo at 20 mg/kg [3] | LD50 [4]
O=c1c2[nH]nnc2nc2sc(Cc3ccc(F)cc3)nn12 [Example 45] |  |  | 57% | 
CC(C)(C)c1ccc(-c2nn3c(=O)c4[nH]nnc4nc3s2)o1 [Example 20] |  |  |  | > 2000 mg/kg
CC(C)(C)c1ccc(-c2nn3c(=O)c4[nH]nnc4nc3s2)cc1 [Example 1, 6-(4-tert-Butylphenyl)-[1,3,4]thiadiazolo[3,2-a][1,2,3]triazolo[4,5-d]pyrimidin-9(1H)-one] | 83% | 64% | 46% | > 2000 mg/kg
COc1ccc(-c2cn3c(=O)c4[nH]nnc4nc3s2)cc1Cl [Example 73] |  |  | 48% | 
CC(C)c1ccc(-c2nn3c(=O)c4[nH]nnc4nc3s2)cc1 [Example 2] | 85% | 52% |  | 
COc1ccc(Cc2nn3c(=O)c4[nH]nnc4nc3s2)cc1 [Example 44] | 81% | 70% |  | 
CC1CCc2sc(-c3nn4c(=O)c5[nH]nnc5nc4s3)cc2C1 (centres unmarked) [Example 36] | 83% | 41% | 40% | 
CCc1ccc(-c2nn3c(=O)c4[nH]nnc4nc3s2)s1 [Example 27] | 81% | 63% |  | 
O=c1c2[nH]nnc2nc2sc(C3COc4ccccc4O3)nn12 (centres unmarked) [Example 41] | 91% | 62% |  | 
CC(C)(C)c1ccc(OCCc2nn3c(=O)c4[nH]nnc4nc3s2)cc1 [Example 69] |  |  | 34% | 
Cc1ccc(-c2nn3c(=O)c4[nH]nnc4nc3s2)cc1 [Example 80, 6-(4-Methylphenyl)-[1,3,4]thiadiazolo[3,2-a][1,2,3]triazolo[4,5-d]pyrimidin-9(1H)-one monohydrate] | 91% | 42% | 31% | 
O=c1c2[nH]nnc2nc2sc(-c3ccc4c(c3)CCCC4)nn12 [Example 83] |  |  | 44% | 
CC(C)(C)c1ccc(-c2cn3c(=O)c4[nH]nnc4nc3s2)cc1 [Example 6] |  |  | 36% | 
Cc1ccc(-c2nn3c(=O)c4[nH]nnc4nc3s2)o1 [Example 18] |  |  |  | > 2000 mg/kg
O=c1c2[nH]nnc2nc2sc(-c3ccc(Cl)s3)nn12 [Example 32] | 87% | 63% | 35% | 
CC(C)(C)c1cccc(-c2nn3c(=O)c4[nH]nnc4nc3s2)c1 [Example 82] | 82% | 52% |  | 
Cc1ccc(CCc2nn3c(=O)c4[nH]nnc4nc3s2)cc1 [Example 50] |  |  |  | > 2000 mg/kg
O=c1c2[nH]nnc2nc2sc(-c3ccccc3)nn12 [Example 47] |  |  | 38% | > 2000 mg/kg
O=c1c2[nH]nnc2nc2sc(CCc3ccccc3)nn12 [Example 9, 6-(2-Phenylethyl)-[1,3,4]thiadiazolo[3,2-a][1,2,3]triazolo[4,5-d]pyrimidin-9(1H)-one] | 80% | 50% | 52% | > 2000 mg/kg
O=c1c2[nH]nnc2nc2sc(Cc3ccccc3)nn12 [Example 42] | 99% | 54% | 48% | > 2000 mg/kg
O=c1c2[nH]nnc2nc2sc(-c3ccsc3)nn12 [Example 24] |  |  | 45% | 
O=c1c2[nH]nnc2nc2sc(CCc3ccc(Cl)cc3)nn12 [Example 55] |  |  |  | > 2000 mg/kg
O=c1c2[nH]nnc2nc2sc(CCc3ccc(F)cc3)nn12 [Example 53] |  |  |  | > 2000 mg/kg
